Legend:
[1] = test system: AML-3 acute myelogenous leukemia cell line; assay: Cell viability MTS assay, AML-3; type: cell-based; details: Homo sapiens, AML3, 48 hours, read-out: EC50, cell killing in AML-3
Method: (§1) The lymphoid derived cell lines DHL-6 and DHL-10 were obtained from Anthony Letai of the Dana Father Cancer Research Institute, Boston, Mass. The […] derived cell line NCP-H929 was obtained irons, the NIH/NCI cell repository. AML-3 cells were obtained from Dr. Michael Andreef (MD Anderson Cancer Center, Houston, Tex.). Cells were grown in RPMI 1640 medium (GIBCO-BRL) supplemented with Pen-strep-glutamine (Gibco 10378) and 5% fetal bovine serum.
(§2) Cells were expanded in tissue culture in appropriate media and then subcultured into 96-well plates at a seeding density of 20,000-40,000 cells per well, and cells were treated with one or more compounds that were titrated info appropriate medium with FCS. Cell lines were treated with compound A at concentrations ranging from 25 μM to 25 nM. The BH3-mimetic obatoclax (Nguyen M et al. (2007), Proc. Natl. Acad. Sci. USA 104:19512-19517) was also tested against the SUDHL-6, SUDHL-10, and NCI-H929 cell lines. Cells were treated for 48 hours and scored for viability using the MTS assay (Promega). Growth inhibition was indicated as a percentage of control cell growth. Growth was determined by measuring the A570 (control cells)—A570 (treated cells)/A570 (control cells). EC50 values were calculated using Graphpad Prizm software.

NCI H929 tumors = assay: NCI H929 human myeloma xenograft model in mice; type: in vivo, mouse; details: vehicle 2300 mm^3
Method: Cell Culture: Tumor cell line NCI H929 was cultured according to ATCC recommendations in […] containing 10% fetal bovine serum and pen-strep. On the day of implantation, cells were washed 1× with phosphate buffered saline (PBS) and harvested via centrifugation. Cells were pelleted (5 min at 1000 rpm, RT) then resuspended in serum-free matrigel and kept on ice until implantation.
Tumor Cell Implantation: The cell line was implanted via subcutaneous injection on the right rear flank at a volume of 200 μl containing 3×10^7 cells per mouse; the injection site was cleaned using alcohol before and after injection to prevent any infection.
Tumor Assessment: Beginning 1 week post cell implantation all animals were weighed and tagged and tumors were measured and body weights taken 3 times weekly (length×width×height) on Monday, Wednesday, and Friday for the duration of study. Once an average tumor volume of 100-200 mm^3 was reached, animals were randomized and placed into 4 treatment groups of a minimum of 10 mice per group based on tumor size. Randomization was determined by tumor volume (length×width×height)[…] for all of the mice and average volume was calculated using a average function in Excel (Microsoft Professional).
Treatment: The study involved 4 groups of 10 animals per group. Animals in all dose groups were weighed on days of tumor measurement. All doses were administered i.p. at 10 mL/kg. The Bortezormib (1 mg/kg) group was once every 3 days for 15 days. The mice receiving vehicle and compound II-19 were dosed every second day. Compound II-19 was formulated in 1% DMSO, 10 mM Tris pH 8, 30% hydroxypropyl-beta-cyclodextrin; this vehicle was used as the “vehicle” control. Bortezomib was formulated in 30% propylene glycol, 5% Tween 80, 3.3% dextrose in water, pH 4, 1% DMSO.

[2] = test system: NCI-H929 multiple myeloma cell line; assay: Cell viability MTS assay, NCI-H929; type: cell-based; details: Homo sapiens, 48 hours, read-out: EC50, cell killing in NCI-H929
Method: as §1, §2

Compound: COC(=O)c1ccc(O)c2nc3c(C=O)c(O)c(-c4c(O)c(C=O)c5nc6c(O)ccc(C(=O)OC)c6nc5c4O)c(O)c3nc12 [II-19, dimethyl 4,4′-diformyl-1,1′,3,3′,6,6′-hexahydroxy-[2,2′-biphenazine]-9,9′-dicarboxylate]
- EC50 [1]: 10 µM
- average tumor size at the end of the study (NCI H929 tumors; 1 mg/kg i.p. every second day): 1740 mm^3
- average tumor size at the end of the study (NCI H929 tumors; 3 mg/kg i.p. every second day): 1600 mm^3
- EC50 [2]: 8 µM

Reference: patent publication US9351971B2, “Substituted 2,2′-biphenazines for treating diseases” (Eutropics Pharmaceuticals, Inc., priority 2010, dated 2016)
